Results: patent US9487486B2, “Derivatives of nicotinic acid N-oxide, their preparation and their use as inhibitors of enzyme 3-hydroxyanthranilate-3, 4-dioxygenase” (UNIVERSITY OF MARYLAND, BALTIMORE, priority 2011, dated 2016)

What was measured:
[1] = biological target: T1, 3-hydroxyanthranilate-3,4-dioxygenase (3HAO) (Rattus norvegicus, UniProt P46953); test: In vitro 3HAO inhibition in rat brain homogenates; assay type: biochemical
T1 construct: One hundred μl of control Sprague Dawley rat brain homogenate; from tissue; host or cells: Sprague Dawley rat brain homogenate
T1 sequence (P46953 1-286): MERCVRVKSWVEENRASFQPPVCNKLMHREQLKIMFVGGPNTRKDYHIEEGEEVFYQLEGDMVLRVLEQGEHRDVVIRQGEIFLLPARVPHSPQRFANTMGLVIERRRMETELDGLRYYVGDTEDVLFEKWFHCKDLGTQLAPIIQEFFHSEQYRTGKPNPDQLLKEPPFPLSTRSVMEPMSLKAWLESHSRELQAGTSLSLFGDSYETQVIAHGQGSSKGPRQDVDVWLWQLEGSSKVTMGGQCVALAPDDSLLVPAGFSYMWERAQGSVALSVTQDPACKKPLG
Description: (§1) The following procedure has been carried out for all the six compounds prepared according to the Examples 1-6 above.
(§2) One hundred μl of control Sprague Dawley rat brain homogenate (1/10 dilution in bidistilled water) were further diluted (1/2, 5 v/v) with a 5 mM MES/NaOH buffer (pH 6.5) and incubated at 37° C. for 1 h in the presence of the radiolabeled substrate[14C]-3-hydroxyanthranilic acid (3.7 µM), ferrous ammonium sulphate (150 µM), ascorbic acid (0.01%). 20 μl of a solution (10 μM) of a compound of the invention were added prior to the addition of the radiolabeled substrate, for a total volume of 200 μl. The enzymatic reaction was stopped by adding 50 μl of 6% perchloric acid. The mixture was centrifuged for 5 min a 12.000 g and the supernatant was applied to a column packed with a cation-exchange resin (Dowex 50W, 0.5×2.0 cm; protonated form). [14C]-quinolinic acid formed by enzymatic reaction was eluted with 1 ml of distilled water. The eluate was added to scintillation liquid (Beckman, Ultima Gold) and radioactivity was measured with a is beta-counter.
(§3) The same procedure has been repeated by adding 20 μl of a solution (100 μM) of a compound of the invention and repeated by adding 20 μl of a solution (1000 μM) of a compound of the invention.

[2] = biological target: T2, 3-hydroxyanthranilate-3,4-dioxygenase (3HAO) (Homo sapiens, UniProt P46952); test: In vitro 3HAO inhibition in human brain homogenates; assay type: biochemical
T2 construct: One hundred μl of healthy human brain homogenate; from tissue; host or cells: healthy human brain homogenate
T2 sequence (P46952 1-286): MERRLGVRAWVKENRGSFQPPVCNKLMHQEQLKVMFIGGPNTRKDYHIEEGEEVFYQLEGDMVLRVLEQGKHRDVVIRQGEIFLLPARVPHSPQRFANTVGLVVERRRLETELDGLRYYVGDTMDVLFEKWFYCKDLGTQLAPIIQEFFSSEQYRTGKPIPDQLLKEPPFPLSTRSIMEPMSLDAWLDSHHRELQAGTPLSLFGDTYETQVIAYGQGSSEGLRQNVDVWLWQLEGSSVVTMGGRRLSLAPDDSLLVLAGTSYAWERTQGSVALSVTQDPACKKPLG
Description: as §1
as §2, with “of healthy human” for “of control Sprague Dawley rat”, “(3.7 μM),” for “(3.7 µM),”, “(150 μM),” for “(150 µM),”, “substrate, to” for “substrate, for”, “a final” for “a total”, “a” for “a is”
as §3

[3] = tested on: de novo production of QUIN in QUIN-lesioned rat brain; test: In vivo de novo production of QUIN from 3H-kynurenine in QUIN-lesioned rat striatum; details: 5 mM I3 co-infused intrastriatally with 3H-kynurenine, 7 days after lesion, 2 h, FIG. 1
Description: Quinolinic acid lesions in the rat striatum were made as described by Schwarcz et al. (1983), using 300 nmol quinolinic acid per injection. In vivo assays of I3 in the lesioned striatum were performed 7 days later. [Schwarcz R, Whetsell W O Jr, Mangano R M (1983) Quinolinic acid: an endogenous metabolite that produces axon-sparing lesions in rat brain. Science 219:316-8.]
Intrastriatal injection of 3H-kynurenine: two months-old male Sprague-Dawley rats were anesthetized with chloral hydrate (360 mg/kg, i.p.) and mounted in a David Kopf stereotaxic apparatus (Tujunga, Calif.). Through a small burr hole in the skull, […] of 3H-kynurenine [in phosphate-buffered saline (PBS), pH 7.4] was infused (6 μL over 10 min) intrastriatally. 3H-kynurenine was infused in the absence or presence of 5 mM I3. The injection coordinates were: AP: 1.0 mm anterior to bregma, L: 2.6 mm from the midline, V: 4.8 mm below dura. Animals were euthanized 2 h later and the striatum was dissected out, frozen on dry ice and stored at −80° C. Subsequently, the tissue was processed for the determination of tritiated neuroactive products of KP metabolism. […]
Analysis of 3H-quinolinic acid: the analysis of tritiated quinolinic acid derived from 3H-kynurenine was performed essentially as described by Guidetti et al. (1995). […] Tritiated quinolinic acid was detected radiometrically (Beta-Ram; IN/US Systems, Tampa, Fla.). […]

[4] = Chemical stability over time in phosphate buffer (HPLC); assay type: physicochemical; details: phosphate buffer pH 7.5; 10 and 100 μM; 37° C.; 24 h; FIG. 2
Description: Compound I3 was dissolved in a phosphate buffer at pH 7.5 at two different concentrations (10 and 100 μM). The resulting solutions were incubated at 37° C. for 24 h.
Chromatographic analyses were performed with a HPLC system (Shimadzu Corp., Kyoto, Japan), endowed with a UV/VIS detector, and the samples were eluted with a mixture containing methanol (0.05% TFA)/water (0.25% TFA)=20/80 at a flow rate of 1 ml/min.

[5] = 1000 μM compound, rat brain homogenate (I4-I6 table)
[6] = 1000 μM compound, human brain homogenate (I4-I6 table)
[7] = 10 μM compound, rat brain homogenate
[8] = 100 μM compound, rat brain homogenate
[9] = 1000 μM compound, rat brain homogenate (I1-I3 table)
[10] = 10 μM compound, human brain homogenate
[11] = 100 μM compound, human brain homogenate
[12] = 1000 μM compound, human brain homogenate (I1-I3 table)

SMILES | % inibition of 3HAO (r) [1, 5] | % inibition of 3HAO (h) [2, 6] | % inibition of 3HAO (r) [1, 7] | % inibition of 3HAO (r) [1, 8] | % inibition of 3HAO (r) [1, 9] | % inibition of 3HAO (h) [2, 10] | % inibition of 3HAO (h) [2, 11] | % inibition of 3HAO (h) [2, 12] | Effect on brain level of QUIN (de novo 3H-quinolinic acid production) [3] | Chemical stability (HPLC) [4]
Cc1cc(-c2ccccc2)c(C(=O)O)c(N)[n+]1[O-] [Compound I5, 2-amino-4-phenyl-6-methylnicotinic acid N-oxide] | 80% | 70% |  |  |  |  |  |  |  | 
Nc1c(C(=O)O)ccc(Cl)[n+]1[O-] [Compound I2, 2-amino-6-chloronicotinic acid N-oxide] |  |  | 22% | 76% | 99% | 42% | 100% | 100% |  | 
Cc1ccc(C(N)=O)c(N)[n+]1[O-] [Compound I4, 2-amino-6-methylnicotinamide N-oxide] | 15% | 23% |  |  |  |  |  |  |  | 
Nc1c(C(=O)O)ccc[n+]1[O-] [Compound I1, 2-aminonicotinic acid N-oxide] |  |  | 49% | 90% | 97% | 66% | 93% | 96% |  | 
CC(C)c1cc(C(C)C)[n+]([O-])c(N)c1C(=O)O [Compound I6, 2-amino-4,6-diisopropylnicotinic acid N-oxide] | 70% | 60% |  |  |  |  |  |  |  | 
Cc1ccc(C(=O)O)c(N)[n+]1[O-] [Compound I3, 2-amino-6-methylnicotinic acid N-oxide] |  |  | 78% | 97% | 99% | 80% | 100% | 100% | able to block the abnormal de novo production of QUIN under excitotoxic conditions | complete chemical stability
